{
  "source": "paper PMC9506480",
  "about": "“Synthesis and Evaluation of Antiproliferative Activity, Topoisomerase IIα Inhibition, DNA Binding and Non-Clinical Toxicity of New Acridine–Thiosemicarbazone Derivatives” (Pharmaceuticals, 2022)",
  "key": {"[1]": {"system": "CT DNA", "assay": "CT DNA binding by UV–Vis absorption spectroscopy", "set-up": "species or system calf", "settings": "compound 40 µM, CT DNA 0 to 60 µM, Tris-HCl pH 7.4", "protocol": "Absorption spectroscopy is a convenient and simple method for probing the binding of small molecules to DNA. The interaction of selected acridine–thiosemicarbazone derivatives with CT DNA was studied in the 220–500 nm region. Binding constants (Kb) were calculated from [DNA]/(Ɛa − Ɛf) versus [DNA], in which Kb is given by the ratio of slope to the intercept. […] For this, the regions chosen were the ones with the highest absorption intensity above 300 nm, due to the lower interference in DNA absorption in this region (ESI, Figures S50 and S53).\nThe concentration of the calf thymus, Type I, fibers (CT DNA), was determined based on the extinction coefficient of the absorbance at 260 nm (6600 L mol^−1 cm^−1). All compounds were dissolved in methanol (HPLC grade) at a concentration of 1 mmol L^−1 (stock solution). Working solutions were prepared by diluting the stock solution using Tris-HCl buffer (pH 7.4), with concentrations of 40 µmol L^−1. Under the optimized concentration, the compounds were titered with increasing concentrations of CT DNA (5 to 60 µmol L^−1). After shaking the system and incubating at room temperature for 10 min, the measurements were recorded using a JASCO J818 spectropolarimeter in the range of 220 to 500 nm at 298 K. The intrinsic bond constant (Kb) was obtained by adjusting the data according to the equation below:[DNA]/(Ɛa − Ɛf) = [DNA]/(Ɛb − Ɛf) + 1/[Kb (Ɛb − Ɛf)] where Ɛa, Ɛb and Ɛf are the apparent extinction coefficient of the compounds, the extinction coefficient of the compounds found in their […] and the extinction coefficient of the compounds when fully DNA-bound, respectively. The graph of [DNA]/(Ɛa − Ɛf) versus [DNA] was used to obtain the Kb from the ratio between the slope and the intercept, as previously described in the literature. Binding data were obtained using SigmaPlot 10.0 software. The study of possible DNA denaturation using methanol–water solutions was evaluated up to the maximum final concentration of methanol in the assays (6%) (ESI, Figures S50 and S53)."}, "[2]": {"system": "MRC-5 (human lung fibroblast)", "assay": "Alamar blue cytotoxicity assay, non-cancerous MRC-5", "assay_type": "cell-based", "settings": "MRC5, 72 h incubation, non-cancerous cell", "protocol": "The in vitro cytotoxic activity of the compounds (Table 1) was evaluated against cancer cell lines HCT116 (human colon carcinoma), HepG2 (human hepatocellular carcinoma), B16F10 (murine melanoma carcinoma) and non-cancerous cell line MRC-5 (human lung fibroblast) using the Alamar blue assay after 72 h of incubation; doxorubicin (DOX) was used as a positive control. The unsubstituted derivatives on the acridine cores were encoded as CL, and the disubstituted derivatives as DL.\nThe human cancer cell lines HCT116 (colon carcinoma) and HepG2 (hepatocellular carcinoma), the mouse cancer cell line B16-F10 (melanoma), and the non-cancerous human cell line MRC-5 (lung fibroblast) were obtained from the American Type Culture Collection (ATCC, Manassas, VA, USA) and cultured according to the ATCC animal cell culture guide. All cell lines tested negative for mycoplasma using a mycoplasma stain kit.\nCell viability was measured using the Alamar blue assay, as previously described. Cells were seeded in 96-well plates for all experiments. The compounds were dissolved in dimethyl sulfoxide (DMSO, Sigma-Aldrich) and added to each well in eight serial concentrations ranging from 0.19 to 25 μg/mL. As a positive control, doxorubicin was used. After 72 h of treatment, 20 μL of resazurin (0.312 mg/mL) was added to each well. A SpectraMax 190 Micro-plate Reader was used to measure absorbances at 570 and 595 nm (Molecular Devices, Sunnyvale, CA, USA). Nonlinear regression with 95% confidence intervals (CI 95%) was used to calculate the inhibitory concentration of 50% (IC50) using GraphPad Prism software (Intuitive Software for Science; San Diego, CA, USA)."}, "[3]": {"molecular_target": "T1, recombinant human topoisomerase IIα (p170) (Homo sapiens, UniProt P11388)", "T1 construct": "purchased Sigma-Aldrich", "T1 sequence (P11388 whole entry)": "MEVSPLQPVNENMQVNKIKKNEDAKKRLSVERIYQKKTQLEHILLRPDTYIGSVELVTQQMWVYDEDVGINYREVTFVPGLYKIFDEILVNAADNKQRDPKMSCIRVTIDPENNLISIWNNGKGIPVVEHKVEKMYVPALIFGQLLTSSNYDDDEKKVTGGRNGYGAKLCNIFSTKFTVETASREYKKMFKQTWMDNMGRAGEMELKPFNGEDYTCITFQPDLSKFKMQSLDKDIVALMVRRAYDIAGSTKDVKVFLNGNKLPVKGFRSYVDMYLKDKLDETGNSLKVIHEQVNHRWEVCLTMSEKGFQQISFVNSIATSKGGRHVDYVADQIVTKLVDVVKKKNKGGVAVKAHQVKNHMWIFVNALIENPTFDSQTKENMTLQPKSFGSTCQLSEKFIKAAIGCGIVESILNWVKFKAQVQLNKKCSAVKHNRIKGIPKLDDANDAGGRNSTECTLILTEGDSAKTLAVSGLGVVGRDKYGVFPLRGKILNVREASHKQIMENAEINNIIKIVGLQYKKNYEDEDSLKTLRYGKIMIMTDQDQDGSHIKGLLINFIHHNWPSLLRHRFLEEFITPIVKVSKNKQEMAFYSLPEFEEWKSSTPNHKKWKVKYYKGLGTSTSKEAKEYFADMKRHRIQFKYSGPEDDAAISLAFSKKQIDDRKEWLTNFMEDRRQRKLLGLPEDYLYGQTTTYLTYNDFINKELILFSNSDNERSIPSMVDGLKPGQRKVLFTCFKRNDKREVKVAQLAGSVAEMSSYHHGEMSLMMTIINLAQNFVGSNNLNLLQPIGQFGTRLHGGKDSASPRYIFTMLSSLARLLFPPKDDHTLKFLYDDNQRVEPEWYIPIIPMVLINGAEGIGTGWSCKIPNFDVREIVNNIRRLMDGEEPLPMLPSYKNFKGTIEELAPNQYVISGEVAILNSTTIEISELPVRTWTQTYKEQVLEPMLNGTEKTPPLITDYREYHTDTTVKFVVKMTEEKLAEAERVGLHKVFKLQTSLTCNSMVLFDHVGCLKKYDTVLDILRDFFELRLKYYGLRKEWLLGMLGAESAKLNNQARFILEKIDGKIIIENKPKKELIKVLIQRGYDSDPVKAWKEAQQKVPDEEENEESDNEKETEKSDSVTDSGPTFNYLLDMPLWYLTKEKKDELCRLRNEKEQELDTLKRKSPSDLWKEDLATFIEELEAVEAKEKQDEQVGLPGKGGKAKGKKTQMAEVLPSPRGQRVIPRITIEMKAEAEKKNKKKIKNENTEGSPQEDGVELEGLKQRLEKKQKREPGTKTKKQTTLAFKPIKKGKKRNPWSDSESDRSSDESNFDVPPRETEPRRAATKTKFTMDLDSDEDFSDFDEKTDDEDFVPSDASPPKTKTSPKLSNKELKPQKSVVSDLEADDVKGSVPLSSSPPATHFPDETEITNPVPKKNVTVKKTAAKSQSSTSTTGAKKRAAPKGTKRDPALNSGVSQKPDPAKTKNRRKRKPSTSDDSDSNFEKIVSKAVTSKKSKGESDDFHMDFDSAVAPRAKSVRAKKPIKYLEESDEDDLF", "assay": "Human topoisomerase IIα inhibition assay (pUC19 plasmid relaxation)", "assay_type": "biochemical", "settings": "for inhibition of Topo IIα enzymatic activity (in words) / % of enzyme inhibition: 100 µM; for % of enzyme inhibition / inhibition at 100 µM: densitometry, relative to positive control mAMSA, '-' = no inhibition; for inhibition at 100 µM: read-out: % of enzyme inhibition", "from_the_text": "Several studies have shown the ability of acridines to inhibit topoisomerases, being considered the main mechanism responsible for the antiproliferative activities of this scaffold. The possibility of the new acridine derivatives to inhibit Topo IIα in its biological function of DNA double-strand relaxation was investigated in this work. This enzymatic inhibition can be accompanied by the presence of a supercoiled or relaxed DNA band, performed with the pUC19 plasmid, as shown in Figure 2. In this study, mAMSA was used as a positive inhibition control.\nFor testing the ability of Topo IIα inhibition, the compounds were evaluated in the DNA plasmid relaxation assay. This test consists of evaluating the Topo IIα enzyme activity in the absence and presence of the compound, followed by electrophoresis analysis, as previously described by Almeida et al. (2016). Briefly, 100 ng pUC19 DNA plasmid (Sigma-Aldrich) and 4.0 units of recombinant human (p170) topoisomerase II (Sigma-Aldrich) in relaxation buffer without or with tested compounds were incubated for 30 min at 37 °C. The tested concentrations were […], and amsacrine (mAMSA) was used as a positive control. Reactions were terminated with 1% SDS and digested with proteinase K. Then, the reaction products were analyzed by electrophoresis gel stained with ethidium bromide and photographed under UV light. Quantitative evaluation (% of enzyme inhibition by compounds about the positive control mAMSA) of the gel bands corresponding to supercoiled DNA was performed by densitometry using image-processing software (Scion Image, version Beta 4.0.2.) according to Gouveia et al. (2018).\nFigure 2 Effects of mAMSA and its acridine derivatives on topoisomerase IIα activity. Effects of derivatives and positive control on the inhibition of human topoisomerase IIα. Native supercoiled pUC19 was incubated for 30 min at 37 °C with […] of human Topo IIα in the absence (lane 2) or presence of ligands at a concentration 100 μM. Inhibition of Topo IIα-induced DNA relaxation by mAMSA (lane 3) was used as a positive control. DNA samples were run on an agarose gel followed by ethidium bromide staining."}},
  "note": "Entries after “also recorded” stand apart in the source; their conditions may differ.",
  "data": [
    {"compound": "Oc1ccc(/C=N/NC(=S)Nc2c3ccccc3nc3ccccc23)cc1", "note": "[CL-07, (E)-N-(acridin-9-yl)-2-(4-hydroxybenzylidene)hydrazine-1-carbothioamide]", "values": [
      {"measurement": "Hypochromic (%)", "setting": "[1]", "value": 25.52, "unit": "%"},
      {"measurement": "IC50", "setting": "[2]", "value": 43.4, "unit": "µM"},
      {"measurement": "inhibition of Topo IIα enzymatic activity (in words)", "setting": "[3]", "value": "did not show inhibition capacity; also recorded: could not inhibit Topo IIα"}
    ]},
    {"compound": "COc1ccc2nc3cc(Cl)ccc3c(NC(=S)N/N=C/c3ccccc3)c2c1", "note": "[DL-01, (E)-2-benzylidene-N-(6-chloro-2-methoxyacridin-9-yl)hydrazine-1-carbothioamide]", "values": [
      {"measurement": "Hypochromic (%)", "setting": "[1]", "value": 12.89, "unit": "%"},
      {"measurement": "IC50", "setting": "[2]", "value": 37, "unit": "µM"},
      {"measurement": "inhibition of Topo IIα enzymatic activity (in words)", "setting": "[3]", "value": "able to inhibit the enzymatic activity"},
      {"measurement": "% of enzyme inhibition", "setting": "[3]", "value": 77, "unit": "%"},
      {"measurement": "inhibition at 100 µM", "setting": "[3]", "value": "> 74", "unit": "%"}
    ]},
    {"compound": "COc1ccc2nc3cc(Cl)ccc3c(NC(=S)N/N=C/c3cccc(O)c3)c2c1", "note": "[DL-08, (E)-N-(6-chloro-2-methoxyacridin-9-yl)-2-(3-hydroxybenzylidene)hydrazine-1-carbothioamide]", "values": [
      {"measurement": "Hypochromic (%)", "setting": "[1]", "value": 14.79, "unit": "%"},
      {"measurement": "IC50", "setting": "[2]", "value": 14.4, "unit": "µM"},
      {"measurement": "inhibition of Topo IIα enzymatic activity (in words)", "setting": "[3]", "value": "able to inhibit the enzymatic activity"},
      {"measurement": "% of enzyme inhibition", "setting": "[3]", "value": 79, "unit": "%"},
      {"measurement": "inhibition at 100 µM", "setting": "[3]", "value": "> 74", "unit": "%"}
    ]}
  ]
}
